Results published in patent US11382956B2, “Amylin analogues” (Zealand Pharma A/S, priority 2016, dated 2022).
pEC50: −log10 of the molar value. Numbered stars: 1 amine (or outer) side, 2 acyl side, 3 side chain; on linkers, the order of the positions; unused ones are H or OH. Bridge positions count the residues as written; N and C are the ends. Square brackets hold non-standard residues; d marks the D form. Peptide text beside a SMILES is read from it. * marks the point of attachment. C20 diacid = O=C(O)CCCCCCCCCCCCCCCCCCC(=O)*; γGlu = O=C(O)[C@H](CCC(=O)[*:2])N[*:1]; Hyp = O=C(O)[C@@H]1C[C@@H](O)CN1; NMeI = CC[C@H](C)[C@H](NC)C(=O)O; Aad = N[C@@H](CCCC(=O)O)C(=O)O; Orn = NCCC[C@H](N)C(=O)O; Sar = CNCC(=O)O

Key:
[1] = molecular target: T1, recombinant human calcitonin receptor (hCT-R) (Homo sapiens, UniProt P30988); assay: hCT-R cAMP assay (AlphaScreen) in 1321N1 cells; assay type: cell-based; settings: cAMP formation, 45 min stimulation
T1 construct: host or cells: human astrocytoma cell line 1321N1
T1 sequence (P30988 25-474): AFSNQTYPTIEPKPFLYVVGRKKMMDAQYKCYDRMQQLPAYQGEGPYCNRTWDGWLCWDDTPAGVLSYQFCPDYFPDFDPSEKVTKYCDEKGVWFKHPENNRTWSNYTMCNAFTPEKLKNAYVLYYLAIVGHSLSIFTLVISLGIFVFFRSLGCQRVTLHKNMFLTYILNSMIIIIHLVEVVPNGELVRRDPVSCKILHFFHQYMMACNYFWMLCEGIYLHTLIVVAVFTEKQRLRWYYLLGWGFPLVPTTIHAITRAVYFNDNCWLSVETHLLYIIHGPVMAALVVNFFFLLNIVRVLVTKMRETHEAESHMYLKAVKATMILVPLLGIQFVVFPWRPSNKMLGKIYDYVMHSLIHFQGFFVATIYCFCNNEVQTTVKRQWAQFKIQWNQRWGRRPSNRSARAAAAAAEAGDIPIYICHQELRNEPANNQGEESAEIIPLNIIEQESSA
How it was run: (§1)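 1321N1 astrocytoma cells expressing recombinant human calcitonin receptor alone or with RAMP3 (AMY3) stimulated 45 min at room temperature with peptide in IBMX-containing buffer. cAMP quantified by AlphaScreen after 1 h bead incubation; EC50 fitted from at least 7 concentrations.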

[2] = molecular target: T2, recombinant human amylin 3 receptor (hAMYR3) (Homo sapiens, UniProt O60896+P30988); assay: hAMYR3 cAMP assay (AlphaScreen) in 1321N1 cells; assay type: cell-based; settings: cAMP formation, 45 min stimulation
T2 construct: host or cells: human astrocytoma cell line 1321N1
T2 sequence (P30988 25-474): T1 sequence (P30988 25-474)
T2 sequence (O60896 24-148 partner): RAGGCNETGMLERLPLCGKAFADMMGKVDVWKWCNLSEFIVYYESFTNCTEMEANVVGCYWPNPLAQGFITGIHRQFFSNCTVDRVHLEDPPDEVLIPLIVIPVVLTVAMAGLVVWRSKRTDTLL
How it was run: as §1

[3] = Assessment of chemical stability in 40 mM buffers at 40° C. (RP-HPLC); assay type: physicochemical; settings: 1 mg/mL; for % degradation after 14 days at 40° C. pH4 acetate: acetate buffer pH 4, 14 days; for % degradation after 14 days at 40° C. pH6 phosphate: phosphate buffer pH 6, 14 days
Method: Samples of each test peptide were dissolved in acetate buffer pH 4 and phosphate buffer pH 6 and 7 (all buffer 40 mM). The final peptide concentration was 1 mg/mL. Samples were placed in glass vials and incubated at 40° C. The samples were analyzed by RP-HPLC on a C8 column with gradient elution using a trifluoroacetic acid/acetonitrile/water eluent system. The area-percentage (area-%) of the main peak was determined by UV spectroscopy at 220 nm at each sampling time point.
The % degradation was calculated by subtracting the […].
The results of the chemical stability assessment after 3 days of incubation time are summarized as % degradation in Table 1 (below).
The results of the chemical stability assessment after 14 days of incubation time are summarized as % degradation in Table 2 (below).

[4] = Assessment of physical stability: fibril formation by Thioflavin T fluorescence; assay type: physicochemical; design: key: FND = fibrillation not detected; FD = fibrillation detected; settings: 1 mg/mL peptide
Method: Solutions containing (i) 1 mg/mL of test peptide, 40 μM ThT and 50 mM phosphate (Ph) buffer (pH 7.0), (ii) 1 mg/mL of test peptide, 40 μM ThT and 50 mM histidine (His) buffer (pH 7.0), and (iii) 1 mg/mL of test peptide, 40 μM ThT and 50 mM acetate (Ac) buffer (pH 4.0), were loaded in a 96-well black fluorescence plate (clear bottom) in triplicate. Data were collected at fixed intervals of 10 min, each preceded by 300 s of automixing (agitation), over a period of 96 hours at 40° C. Physical stability is determined by measuring the fluorescence intensity over time. A significant increase in intensity is rated as fibrillation detected (FD).

Compound	pEC50 [1]	pEC50 [2]	% degradation after 14 days at 40° C. pH4 acetate [3]	% degradation after 14 days at 40° C. pH6 phosphate [3]	% degradation after 14 days at 40° C. pH7 phosphate ([3]; phosphate buffer pH 7, 14 days)	Fibrillation (in buffer) pH4 acetate ([4]; 50 mM acetate buffer pH 4.0, 96 hours at 40° C.)	Fibrillation (in buffer) pH7 histidine ([4]; 50 mM histidine buffer pH 7.0, 96 hours at 40° C.)	Fibrillation (in buffer) pH7 phosphate ([4]; 50 mM phosphate buffer pH 7.0, 96 hours at 40° C.)
CC[C@H](C)[C@@H](C(=O)N[C@@H](CC(C)C)C(=O)N[C@@H](CO)C(=O)N[C@@H](CO)C(=O)N[C@H](C(=O)N[C@@H](CCC(=O)O)C(=O)N[C@H](C(=O)NCC(=O)N[C@@H](CO)C(=O)N[C@@H](CC(N)=O)C(=O)N[C@H](C(=O)N1C[C@H](O)C[C@H]1C(N)=O)[C@@H](C)O)C(C)C)[C@@H](C)O)N(C)C(=O)[C@H](C)NC(=O)CN(C)C(=O)[C@H](Cc1ccccc1)NC(=O)[C@H](CO)NC(=O)[C@H](CO)NC(=O)[C@H](CCCNC(=N)N)NC(=O)[C@H](CCC(N)=O)NC(=O)[C@H](CC(C)C)NC(=O)[C@H](Cc1ccccc1)NC(=O)[C@H](Cc1c[nH]cn1)NC(=O)[C@H](C)NC(=O)[C@H](CC(C)C)NC(=O)[C@H](CCCNC(=N)N)NC(=O)[C@H](CCC(=O)O)NC(=O)[C@@H](NC(=O)[C@H](C)NC(=O)[C@@H]1CCCCNC(=O)C[C@H](NC(=O)[C@H](CCCNC(=N)N)NC(=O)CC[C@H](NC(=O)CCCCCCCCCCCCCCCCCCC(=O)O)C(=O)O)C(=O)NCC(=O)N[C@@H]([C@@H](C)O)C(=O)N[C@@H](C)C(=O)N[C@@H](CO)C(=O)N1)[C@@H](C)O [Compound 14, [19CD]-isoGlu-RD()GTASK()ATERLAHFLQRSSF-Gly(Me)-A-Ile(Me)-LSSTEVGSNT-Hyp-NH2] ({C20 diacid-γGlu}-RDGTASKATERLAHFLQRSSF[Sar]A[NMeI]LSSTEVGSNT[Hyp]-NH2; lactam 2-7)	9.41	9.97	2.2%	<1%	2.6%			
CC[C@H](C)[C@@H](C(=O)N[C@@H](CC(C)C)C(=O)N[C@@H](CO)C(=O)N[C@@H](CO)C(=O)N[C@H](C(=O)N[C@@H](CCC(=O)O)C(=O)N[C@H](C(=O)NCC(=O)N[C@@H](CO)C(=O)N[C@@H](CC(N)=O)C(=O)N[C@H](C(=O)N1C[C@H](O)C[C@H]1C(N)=O)[C@@H](C)O)C(C)C)[C@@H](C)O)N(C)C(=O)[C@H](C)NC(=O)CN(C)C(=O)[C@H](Cc1ccccc1)NC(=O)[C@H](CO)NC(=O)[C@H](CO)NC(=O)[C@H](CCCNC(=N)N)NC(=O)[C@H](CCC(N)=O)NC(=O)[C@H](CC(C)C)NC(=O)[C@H](Cc1ccccc1)NC(=O)[C@H](CC(N)=O)NC(=O)[C@H](C)NC(=O)[C@H](CC(C)C)NC(=O)[C@H](CCCNC(=N)N)NC(=O)[C@H](CCC(N)=O)NC(=O)[C@@H](NC(=O)[C@H](C)NC(=O)[C@@H]1CCCCNC(=O)C[C@H](NC(=O)[C@H](CCCCN)NC(=O)CC[C@H](NC(=O)CCCCCCCCCCCCCCCCCCC(=O)O)C(=O)O)C(=O)NCC(=O)N[C@@H]([C@@H](C)O)C(=O)N[C@@H](C)C(=O)N[C@@H]([C@@H](C)O)C(=O)N1)[C@@H](C)O [Compound 43, [19CD]-isoGlu-KD()GTATK()ATQRLANFLQRSSF-Gly(Me)-A-Ile(Me)-LSSTEVGSNT-Hyp-NH2] ({C20 diacid-γGlu}-KDGTATKATQRLANFLQRSSF[Sar]A[NMeI]LSSTEVGSNT[Hyp]-NH2; lactam 2-7)	10.68	11.15				FD	FD	FD
CC[C@H](C)[C@@H](C(=O)N1CCC[C@H]1C(=O)N[C@@H](CO)C(=O)N[C@@H](CO)C(=O)N[C@H](C(=O)N[C@@H](CCC(=O)O)C(=O)N[C@H](C(=O)NCC(=O)N[C@@H](CO)C(=O)N[C@@H](CC(N)=O)C(=O)N[C@H](C(=O)N1C[C@H](O)C[C@H]1C(N)=O)[C@@H](C)O)C(C)C)[C@@H](C)O)N(C)C(=O)[C@H](C)NC(=O)CN(C)C(=O)[C@H](Cc1ccccc1)NC(=O)[C@H](CO)NC(=O)[C@H](CO)NC(=O)[C@H](CCCNC(=N)N)NC(=O)[C@H](CCC(N)=O)NC(=O)[C@H](CC(C)C)NC(=O)[C@H](Cc1ccccc1)NC(=O)[C@H](Cc1c[nH]cn1)NC(=O)[C@H](C)NC(=O)[C@H](CC(C)C)NC(=O)[C@H](CCCNC(=N)N)NC(=O)[C@H](CCC(=O)O)NC(=O)[C@@H](NC(=O)[C@H](C)NC(=O)[C@H](CCCN)NC(=O)[C@@H](NC(=O)[C@H](C)NC(=O)[C@@H](NC(=O)CNC(=O)[C@H](CC(=O)O)NC(=O)[C@H](CCCNC(=N)N)NC(=O)CC[C@H](NC(=O)CCCCCCCCCCCCCCCCCCC(=O)O)C(=O)O)[C@@H](C)O)[C@@H](C)O)[C@@H](C)O [Ref. 1, [19CD]-isoGlu-RDGTAT-Orn-ATERLAHFLQRSSF-Sar-A-Ile(Me)-PSSTEVGSNT-Hyp-NH2, reference compound] ({C20 diacid-γGlu}-RDGTAT[Orn]ATERLAHFLQRSSF[Sar]A[NMeI]PSSTEVGSNT[Hyp]-NH2)	7.69	7.77						
CC[C@H](C)[C@@H](C(=O)N[C@@H](CC(C)C)C(=O)N[C@@H](CO)C(=O)N[C@@H](CO)C(=O)N[C@H](C(=O)N[C@@H](CCC(=O)O)C(=O)N[C@H](C(=O)NCC(=O)N[C@@H](CO)C(=O)N[C@@H](CC(N)=O)C(=O)N[C@H](C(=O)N1C[C@H](O)C[C@H]1C(N)=O)[C@@H](C)O)C(C)C)[C@@H](C)O)N(C)C(=O)[C@H](C)NC(=O)CN(C)C(=O)[C@H](Cc1ccccc1)NC(=O)[C@H](CO)NC(=O)[C@H](CO)NC(=O)[C@H](CCCNC(=N)N)NC(=O)[C@H](CCC(N)=O)NC(=O)[C@H](CC(C)C)NC(=O)[C@H](Cc1ccccc1)NC(=O)[C@H](Cc1c[nH]cn1)NC(=O)[C@H](C)NC(=O)[C@H](CC(C)C)NC(=O)[C@H](CCCNC(=N)N)NC(=O)[C@H](CCC(=O)O)NC(=O)[C@@H](NC(=O)[C@H](C)NC(=O)[C@@H]1CSSC[C@H](NC(=O)[C@H](CCCNC(=N)N)NC(=O)CC[C@H](NC(=O)CCCCCCCCCCCCCCCCCCC(=O)O)C(=O)O)C(=O)NCC(=O)N[C@@H]([C@@H](C)O)C(=O)N[C@@H](C)C(=O)N[C@@H]([C@@H](C)O)C(=O)N1)[C@@H](C)O [Ref. 2, [19CD]-isoGlu-RC()GTATC()ATERLAHFLQRSSF-Sar-A-Ile(Me)-LSSTEVGSNT-Hyp-NH2, reference compound] ({C20 diacid-γGlu}-RCGTATCATERLAHFLQRSSF[Sar]A[NMeI]LSSTEVGSNT[Hyp]-NH2; disulfide 2-7)	10.72	11.52	<1%	4.6%				
CC[C@H](C)[C@@H](C(=O)N[C@@H](CC(C)C)C(=O)N[C@@H](CO)C(=O)N[C@@H](CO)C(=O)N[C@H](C(=O)N[C@@H](CCC(=O)O)C(=O)N[C@H](C(=O)NCC(=O)N[C@@H](CO)C(=O)N[C@@H](CC(N)=O)C(=O)N[C@H](C(=O)N1C[C@H](O)C[C@H]1C(N)=O)[C@@H](C)O)C(C)C)[C@@H](C)O)N(C)C(=O)[C@H](C)NC(=O)CN(C)C(=O)[C@H](Cc1ccccc1)NC(=O)[C@H](CO)NC(=O)[C@H](CO)NC(=O)[C@H](CCCNC(=N)N)NC(=O)[C@H](CCC(N)=O)NC(=O)[C@H](CC(C)C)NC(=O)[C@H](Cc1ccccc1)NC(=O)[C@H](CCCC(=O)O)NC(=O)[C@H](C)NC(=O)[C@H](CC(C)C)NC(=O)[C@H](CCCNC(=N)N)NC(=O)[C@H](CCC(=O)O)NC(=O)[C@@H](NC(=O)[C@H](C)NC(=O)[C@H](CCCN)NC(=O)[C@@H](NC(=O)[C@H](C)NC(=O)[C@@H](NC(=O)CNC(=O)[C@H](CC(=O)O)NC(=O)[C@H](CCCNC(=N)N)NC(=O)CC[C@H](NC(=O)CCCCCCCCCCCCCCCCCCC(=O)O)C(=O)O)[C@@H](C)O)[C@@H](C)O)[C@@H](C)O [Ref. 3, [19CD]-isoGlu-RDGTAT-Orn-ATERLA-Aad-FLQRSSF-Sar-A-Ile(Me)-LSSTEVGSNT-Hyp-NH2, reference compound] ({C20 diacid-γGlu}-RDGTAT[Orn]ATERLA[Aad]FLQRSSF[Sar]A[NMeI]LSSTEVGSNT[Hyp]-NH2)	7.74	7.88						
